Reference: patent publication US20080022467A1, “Disazo dyes and their preparation and use” (ILFORD Imaging Switzerland GmbH, priority 2006, published 2008)

Tests used:
Type in all cases: physicochemical
[1] = Stability against degradation by ozone of printed patches; set-up: key: A: excellent; B: good; C: satisfactory; D: unsatisfactory; conditions: ozone 1 ppm, 30° C., 50% relative humidity; for Resistance against Degradation by Ozone (Class) on Recording Sheet C: C: ILFORD Galerie Smooth Glossy (nanoporous); for Resistance against Degradation by Ozone (Class) on Recording Sheet D: D: ILFORD Printasia Premium Photo Glossy Paper (nanoporous); for Resistance against Degradation by Ozone (Class) on Recording Sheet F: F: EPSON Premium Glossy Photo Paper (nanoporous); for Resistance against Degradation by Ozone (Class) on Recording Sheet G: G: CANON Photo Paper Pro PR-101 (nanoporous)
Protocol: (§1) The present invention, as far as it relates to recording liquids, is illustrated by the following examples using the disazo dyes of Table 1 according to the invention and dyes representing the state of the art. For each dye, 100 g of recording liquid were prepared by heating the necessary amount of dye (2.0 g-5.0 g), 6.0 g of ethylene glycol, 3.0 g of propylene-1,2-glycol, 3.0 g of 1-methyl-2-pyrrolidone, 0.3 g of an aqueous solution (50%) of Olin® 10G (available from Arch Chemicals Inc., Norwalk, USA), 0.3 g of Surfinol® 465 (available from Air Products and Chemicals Inc., Allentown, USA) and 0.1 g of Mergal® K 10N (available from Riedel-de-Haën, Seelze, Germany) together with water at a temperature of 50° C. under stirring for approximately 1 hour. The resulting solution was cooled down to a temperature of 20° C., its value of pH was adjusted to 7.5 and the solution was passed through a Millipore® filter of 0.3 μm pore diameter. The dye quantity was adjusted in such a way that the optical density of the printed image was similar for all dyes.
(§2) Homogeneously colored square patches with an approximate density of 1.40 were then printed, using these recording liquids, with an ink jet printer Canon BJC 8500 onto the following recording sheets: • A: HP Printing Paper HPP 1122 (paper) • B: HP Premium Plus (polymer based recording sheet) • C: ILFORD Galerie Smooth Glossy (nanoporous recording sheet) • D: ILFORD Printasia Premium Photo Glossy Paper (nanoporous recording sheet) • E: ILFORD Galerie Classic Gloss Paper (polymer based recording sheet) • F: EPSON Premium Glossy Photo Paper (nanoporous recording sheet) • G: CANON Photo Paper Pro PR-101 (nanoporous recording sheet)
The optical density of the colored square patches was measured with a Spectrolino® densitometer. Afterwards, the printed samples were stored for a predetermined time (for example 48 hours) in an ozone chamber, model 903 (available from Satra/Hampden, Great Britain) at a temperature of 30° C., a relative humidity of the air of 50% and an ozone concentration of 1 ppm at a velocity of the circulating, ozone containing air of 13 mm/s. After storage, the samples were re-measured. The density differences of these two measurements, expressed as per cent of the initial density, are an indication of the amount of dye loss due to the exposure to ozone.

[2] = Dye solubility (saturated aqueous solution, spectrophotometric); conditions: summary of Table 2
Protocol: Dye solubility was determined with a spectrophotometer in the UV and in the visible spectral region. The spectra of the pure disazo dyes according to the invention were measured in a buffered aqueous solution at a value of pH of 7.0. Saturated aqueous solutions of the dyes were prepared at a temperature of 50° C. These solutions were afterwards cooled down to room temperature and diluted for the measurements after a waiting time of 24 hours in such a way that the absorption at the absorption maximum was between 0.8 and 1.5. This dilution factor allows the calculation of dye solubility.

[3] = Light stability of printed patches (Weather-Ometer, xenon lamp); set-up: key to Light Stability (Class) on Recording Sheet A / Light Stability (Class) on Recording Sheet B / Light Stability (Class) on Recording Sheet C / Light Stability (Class) on Recording Sheet D / Light Stability (Class) on Recording Sheet E / Light Stability (Class) on Recording Sheet F / Light Stability (Class) on Recording Sheet G: A: excellent; B: good; C: satisfactory; D: unsatisfactory; conditions: for Light Stability (Class) on Recording Sheet A: A: HP Printing Paper HPP 1122 (paper), 20° C., 50% relative humidity; for Light Stability (Class) on Recording Sheet A / Light Stability (Class) on Recording Sheet B / Light Stability (Class) on Recording Sheet C / Light Stability (Class) on Recording Sheet D / Light Stability (Class) on Recording Sheet E / Light Stability (Class) on Recording Sheet F / Light Stability (Class) on Recording Sheet G: 20 megalux hours; for Light Stability (Class) on Recording Sheet B: B: HP Premium Plus (polymer based); for Light Stability (Class) on Recording Sheet C: C: ILFORD Galerie Smooth Glossy (nanoporous); for Light Stability (Class) on Recording Sheet D: D: ILFORD Printasia Premium Photo Glossy Paper (nanoporous); for Light Stability (Class) on Recording Sheet E: E: ILFORD Galerie Classic Gloss Paper (polymer based); for Light Stability (Class) on Recording Sheet F: F: EPSON Premium Glossy Photo Paper (nanoporous); for Light Stability (Class) on Recording Sheet G: G: CANON Photo Paper Pro PR-101 (nanoporous); for light stability on all recording sheets (in words): summary of Table 4
Protocol: as §1, §2
The printed samples were irradiated using a Weather-Ometer® Ci35A (available from Atlas Material Testing Technology, Chicago, USA) with a 6500 W xenon lamp at a temperature of 20° C. and relative humidity of 50% until an illumination of 20 megalux hours was reached. The density loss was measured with a densitometer Spectrolino®. The percent density loss of initial density gives an indication of the light stability of the dyes on the printed recording sheet.

| SMILES | Resistance against Degradation by Ozone (Class) on Recording Sheet C [1] | Resistance against Degradation by Ozone (Class) on Recording Sheet D [1] | Resistance against Degradation by Ozone (Class) on Recording Sheet F [1] | Resistance against Degradation by Ozone (Class) on Recording Sheet G [1] | solubility (in words) [2] | Light Stability (Class) on Recording Sheet A [3] | Light Stability (Class) on Recording Sheet B [3] | Light Stability (Class) on Recording Sheet C [3] | Light Stability (Class) on Recording Sheet D [3] | Light Stability (Class) on Recording Sheet E [3] | Light Stability (Class) on Recording Sheet F [3] | Light Stability (Class) on Recording Sheet G [3] | light stability on all recording sheets (in words) [3] |
| --- | --- | --- | --- | --- | --- | --- | --- | --- | --- | --- | --- | --- | --- |
| O=S(=O)([O-])c1cc(/N=N/c2ccc(Nc3nc(NCCCN4CCOCC4)nc(Nc4ccc(/N=N/c5cc(S(=O)(=O)[O-])c6cccc(S(=O)(=O)[O-])c6c5)cc4)n3)cc2)cc2c(S(=O)(=O)[O-])cccc12.[Na+].[Na+].[Na+].[Na+] [Dye No. IV, reference compound] | A | B | A | A | equally high water solubility | C | A | D | C | C | B | B | satisfactory or even unsatisfactory light stability |
| Cc1cc(Nc2nc(NCCO)nc(Nc3ccc(/N=N/c4cc(S(=O)(=O)[O-])c5cccc(S(=O)(=O)[O-])c5c4)c(C)c3)n2)ccc1/N=N/c1cc(S(=O)(=O)[O-])c2cccc(S(=O)(=O)[O-])c2c1.[Na+].[Na+].[Na+].[Na+] [Dye No. II, Direct Yellow 86, reference compound] | A | B | A | A | – | B | D | B | B | B | A | A | satisfactory or even unsatisfactory light stability |
